Measured values taken from patent US10981917B2, “Heterocyclic compound, its preparation method, and pharmaceutical composition comprising the same” (Daewoong Pharmaceutical Co., Ltd., priority 2017, dated 2021).

Target: PRS (prolyl-tRNA synthetase) protein, PRS portion of EPRS (Homo sapiens (Human), UniProt P07814)
Test: PRS enzyme activity inhibition experiment ([3H]proline, liquid scintillation)
Assay type: biochemical
Conditions: purified PRS protein, 37° C. for 5 to 10 minutes
Description: In order to confirm the biological activities of the compounds prepared in Examples, % inhibition or IC50 values of PRS enzyme ([…]) activities were calculated.
Specifically, the portion corresponding to PRS in cDNA of EPRS was subcloned, and the obtained high-purity PRS protein was purified and used in the experiment. The compounds (1 μM) prepared in Examples were added into the reaction buffer (20 mM KPO4 (pH 7.4), 6 mM MgAc, 5 mM ATP, […] tRNA, 0.5 mM DTT, […][^3H]proline (1 mCi/mL)) and allowed to react at 37° C. for 5 to 10 minutes. The reaction was terminated with 3M paper that was in advance dried by addition of 5% TCA. The radioactivity was measured using a liquid scintillation counter.
% Inhibition and IC50 values of the respective compounds were calculated and analyzed using Microsoft Excel or Sigma Plot 8.0. In Tables 1 to 3, the results are divided into A, B and C according to the range of IC50. The case where the derived IC50 is 100 nM or less is represented by “A”, the case where the IC50 is 100 to 500 nM is represented by “B”, and the case where the IC50 is 500 nM or higher is represented by “C”.

Sequence of PRS (prolyl-tRNA synthetase) protein, PRS portion of EPRS (P07814 1007-1512): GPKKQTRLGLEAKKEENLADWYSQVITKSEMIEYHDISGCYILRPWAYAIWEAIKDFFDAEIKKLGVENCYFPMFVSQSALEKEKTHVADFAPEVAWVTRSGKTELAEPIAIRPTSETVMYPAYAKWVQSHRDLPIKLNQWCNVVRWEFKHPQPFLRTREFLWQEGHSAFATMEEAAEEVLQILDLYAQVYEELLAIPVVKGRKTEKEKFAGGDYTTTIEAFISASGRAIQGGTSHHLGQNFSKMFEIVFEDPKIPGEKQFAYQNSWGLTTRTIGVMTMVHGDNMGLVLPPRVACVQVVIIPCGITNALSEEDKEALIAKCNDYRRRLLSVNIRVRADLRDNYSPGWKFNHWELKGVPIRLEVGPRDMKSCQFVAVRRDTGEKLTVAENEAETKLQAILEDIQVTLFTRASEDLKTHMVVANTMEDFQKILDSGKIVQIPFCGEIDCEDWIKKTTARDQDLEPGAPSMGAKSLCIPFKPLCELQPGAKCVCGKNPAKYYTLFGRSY

| Structure (SMILES) | IC50 [nM] |
| --- | --- |
| O[C@H]1CCCN[C@@H]1CCCn1cnc2ccc(Cl)cc21 [Example 1, (2R,3S)-2-(3-(6-chloro-1H-benzo[d]imidazol-1-yl)propyl)piperidin-3-ol] | 100 to 500 |
| O[C@H]1CCCN[C@@H]1CCCn1cnc2c(Br)cccc21 [Example 2, (2R,3S)-2-(3-(4-bromo-1H-benzo[d]imidazol-1-yl)propyl)piperidin-3-ol] | 100 to 500 |
| O[C@H]1CCCN[C@@H]1CCCn1cnc2cc(Br)ccc21 [Example 3, (2R,3S)-2-(3-(5-bromo-1H-benzo[d]imidazol-1-yl)propyl)piperidin-3-ol] | ≥ 500 |
| O[C@H]1CCCN[C@@H]1CCCn1cnc2ccc(Br)cc21 [Example 4, (2R,3S)-2-(3-(6-bromo-1H-benzo[d]imidazol-1-yl)propyl)piperidin-3-ol] | 100 to 500 |
| O[C@H]1CCCN[C@@H]1CCCn1cnc2cccc(Br)c21 [Example 5, (2R,3S)-2-(3-(7-bromo-1H-benzo[d]imidazol-1-yl)propyl)piperidin-3-ol] | 100 to 500 |
| O[C@H]1CCCN[C@@H]1CCCn1cnc2c(F)cccc21 [Example 6, (2R,3S)-2-(3-(4-fluoro-1H-benzo[d]imidazol-1-yl)propyl)piperidin-3-ol] | ≥ 500 |
| O[C@H]1CCCN[C@@H]1CCCn1cnc2cc(F)ccc21 [Example 7, (2R,3S)-2-(3-(5-fluoro-1H-benzo[d]imidazol-1-yl)propyl)piperidin-3-ol] | 100 to 500 |
| O[C@H]1CCCN[C@@H]1CCCn1cnc2ccc(F)cc21 [Example 8, (2R,3S)-2-(3-(6-fluoro-1H-benzo[d]imidazol-1-yl)propyl)piperidin-3-ol] | ≥ 500 |
| O[C@H]1CCCN[C@@H]1CCCn1cnc2cccc(F)c21 [Example 9, (2R,3S)-2-(3-(7-fluoro-1H-benzo[d]imidazol-1-yl)propyl)piperidin-3-ol] | ≥ 500 |
| O[C@H]1CCCN[C@@H]1CCCn1cnc2c(Cl)cccc21 [Example 10, (2R,3S)-2-(3-(4-chloro-1H-benzo[d]imidazol-1-yl)propyl)piperidin-3-ol] | 100 to 500 |
| O[C@H]1CCCN[C@@H]1CCCn1cnc2cc(Cl)ccc21 [Example 11, (2R,3S)-2-(3-(5-chloro-1H-benzo[d]imidazol-1-yl)propyl)piperidin-3-ol] | 100 to 500 |
| O[C@H]1CCCN[C@@H]1CCCn1cnc2cccc(Cl)c21 [Example 12, (2R,3S)-2-(3-(7-chloro-1H-benzo[d]imidazol-1-yl)propyl)piperidin-3-ol] | 100 to 500 |
| Cc1ccc2ncn(CCC[C@H]3NCCC[C@@H]3O)c2c1 [Example 13, (2R,3S)-2-(3-(6-methyl-1H-benzo[d]imidazol-1-yl)propyl)piperidin-3-ol] | ≥ 500 |
| Cc1ccc2c(c1)ncn2CCC[C@H]1NCCC[C@@H]1O [Example 14, (2R,3S)-2-(3-(5-methyl-1H-benzo[d]imidazol-1-yl)propyl)piperidin-3-ol] | ≥ 500 |
| O[C@H]1CCCN[C@@H]1CCCn1cnc2ccc(C(F)(F)F)cc21 [Example 15, (2R,3S)-2-(3-(6-(trifluoromethyl)-1H-benzo[d]imidazol-1-yl)propyl)piperidin-3-ol] | 100 to 500 |
| O[C@H]1CCCN[C@@H]1CCCn1cnc2cccc(C(F)(F)F)c21 [Example 16, (2R,3S)-2-(3-(7-(trifluoromethyl)-1H-benzo[d]imidazol-1-yl)propyl)piperidin-3-ol] | 100 to 500 |
| O[C@H]1CCCN[C@@H]1CCCn1cnc2cccc(OC(F)(F)F)c21 [Example 17, (2R,3S)-2-(3-(7-(trifluoromethoxy)-1H-benzo[d]imidazol-1-yl)propyl)piperidin-3-ol] | ≥ 500 |
| O[C@H]1CCCN[C@@H]1CCCn1cnc2c(N3CCCC3)cccc21 [Example 18, (2R,3S)-2-(3-(4-(pyrrolidin-1-yl)-1H-benzo[d]imidazol-1-yl)propyl)piperidin-3-ol] | ≥ 500 |
| O[C@H]1CCCN[C@@H]1CCCn1cnc2c(N3CCCCC3)cccc21 [Example 19, (2R,3S)-2-(3-(4-(piperidin-1-yl)-1H-benzo[d]imidazol-1-yl)propyl)piperidin-3-ol] | ≥ 500 |
| O[C@H]1CCCN[C@@H]1CCCn1cnc2c(-c3cccc(F)c3)cccc21 [Example 20, (2R,3S)-2-(3-(4-(3-fluorophenyl)-1H-benzo[d]imidazol-1-yl)propyl)piperidin-3-ol] | ≥ 500 |
| O[C@H]1CCCN[C@@H]1CCCn1cnc2c(-c3cccc(Cl)c3)cccc21 [Example 21, (2R,3S)-2-(3-(4-(3-chlorophenyl)-1H-benzo[d]imidazol-1-yl)propyl)piperidin-3-ol] | ≥ 500 |

| Structure (SMILES) | IC50 [nM] |
| --- | --- |
| O[C@H]1CCCN[C@@H]1CCCn1cnc2cc(-c3cccc(F)c3)ccc21 [Example 22, (2R,3S)-2-(3-(5-(3-fluorophenyl)-1H-benzo[d]imidazol-1-yl)propyl)piperidin-3-ol] | ≥ 500 |
| O[C@H]1CCCN[C@@H]1CCCn1cnc2ccc(-c3ccccc3F)cc21 [Example 23, (2R,3S)-2-(3-(6-(2-fluorophenyl)-1H-benzo[d]imidazol-1-yl)propyl)piperidin-3-ol] | 100 to 500 |
| O[C@H]1CCCN[C@@H]1CCCn1cnc2ccc(-c3cccc(F)c3)cc21 [Example 24, (2R,3S)-2-(3-(6-(3-fluorophenyl)-1H-benzo[d]imidazol-1-yl)propyl)piperidin-3-ol] | ≤ 100 |
| O[C@H]1CCCN[C@@H]1CCCn1cnc2ccc(-c3ccc(F)cc3)cc21 [Example 25, (2R,3S)-2-(3-(6-(4-fluorophenyl)-1H-benzo[d]imidazol-1-yl)propyl)piperidin-3-ol] | ≥ 500 |
| O[C@H]1CCCN[C@@H]1CCCn1cnc2cccc(-c3ccccc3F)c21 [Example 26, (2R,3S)-2-(3-(7-(2-fluorophenyl)-1H-benzo[d]imidazol-1-yl)propyl)piperidin-3-ol] | ≥ 500 |
| O[C@H]1CCCN[C@@H]1CCCn1cnc2cccc(-c3cccc(F)c3)c21 [Example 27, (2R,3S)-2-(3-(7-(3-fluorophenyl)-1H-benzo[d]imidazol-1-yl)propyl)piperidin-3-ol] | 100 to 500 |
| O[C@H]1CCCN[C@@H]1CCCn1cnc2cccc(-c3ccc(F)cc3)c21 [Example 28, (2R,3S)-2-(3-(7-(4-fluorophenyl)-1H-benzo[d]imidazol-1-yl)propyl)piperidin-3-ol] | 100 to 500 |
| O[C@H]1CCCN[C@@H]1CCCn1cnc2cc(-c3cn[nH]c3)ccc21 [Example 29, (2R,3S)-2-(3-(5-(1H-pyrazol-4-yl)-1H-benzo[d]imidazol-1-yl)propyl)piperidin-3-ol] | ≥ 500 |
| O[C@H]1CCCN[C@@H]1CCCn1cnc2ccc(-c3cn[nH]c3)cc21 [Example 30, (2R,3S)-2-(3-(6-(1H-pyrazol-4-yl)-1H-benzo[d]imidazol-1-yl)propyl)piperidin-3-ol] | 100 to 500 |
| O[C@H]1CCCN[C@@H]1CCCn1cnc2cccc(-c3cn[nH]c3)c21 [Example 31, (2R,3S)-2-(3-(7-(1H-pyrazol-4-yl)-1H-benzo[d]imidazol-1-yl)propyl)piperidin-3-ol] | 100 to 500 |
| O[C@H]1CCCN[C@@H]1CCCn1cnc2cc(F)c(Cl)cc21 [Example 32, (2R,3S)-2-(3-(6-chloro-5-fluoro-1H-benzo[d]imidazol-1-yl)propyl)piperidin-3-ol] | 100 to 500 |
| O[C@H]1CCCN[C@@H]1CCCn1cnc2cc(F)c(Br)cc21 [Example 33, (2R,3S)-2-(3-(6-bromo-5-fluoro-1H-benzo[d]imidazol-1-yl)propyl)piperidin-3-ol] | 100 to 500 |
| O[C@H]1CCCN[C@@H]1CCCn1cnc2cc(Cl)c(F)cc21 [Example 34, (2R,3S)-2-(3-(5-chloro-6-fluoro-1H-benzo[d]imidazol-1-yl)propyl)piperidin-3-ol] | 100 to 500 |
| O[C@H]1CCCN[C@@H]1CCCn1cnc2cc(Br)c(F)cc21 [Example 35, (2R,3S)-2-(3-(5-bromo-6-fluoro-1H-benzo[d]imidazol-1-yl)propyl)piperidin-3-ol] | 100 to 500 |
| O[C@H]1CCCN[C@@H]1CCCn1cnc2cc(Cl)c(Br)cc21 [Example 36, (2R,3S)-2-(3-(6-bromo-5-chloro-1H-benzo[d]imidazol-1-yl)propyl)piperidin-3-ol] | 100 to 500 |
| COc1cc2ncn(CCC[C@H]3NCCC[C@@H]3O)c2cc1Cl [Example 37, (2R,3S)-2-(3-(6-chloro-5-methoxy-1H-benzo[d]imidazol-1-yl)propyl)piperidin-3-ol] | 100 to 500 |
| COc1cc2ncn(CCC[C@H]3NCCC[C@@H]3O)c2cc1F [Example 38, (2R,3S)-2-(3-(6-fluoro-5-methoxy-1H-benzo[d]imidazol-1-yl)propyl)piperidin-3-ol] | ≥ 500 |
| Cc1cc2c(cc1F)ncn2CCC[C@H]1NCCC[C@@H]1O [Example 39, (2R,3S)-2-(3-(5-fluoro-6-methyl-1H-benzo[d]imidazol-1-yl)propyl)piperidin-3-ol] | 100 to 500 |
| O[C@H]1CCCN[C@@H]1CCCn1cnc2c(Cl)c(Cl)ccc21 [Example 40, (2R,3S)-2-(3-(4,5-dichloro-1H-benzo[d]imidazol-1-yl)propyl)piperidin-3-ol] | ≤ 100 |
| O[C@H]1CCCN[C@H]1CCCn1cnc2c(Cl)c(Cl)ccc21 [Example 41, (2S,3S)-2-(3-(4,5-dichloro-1H-benzo[d]imidazol-1-yl)propyl)piperidin-3-ol] | ≥ 500 |
| O[C@@H]1CCCN[C@H]1CCCn1cnc2c(Cl)c(Cl)ccc21 [Example 42, (2S,3R)-2-(3-(4,5-dichloro-1H-benzo[d]imidazol-1-yl)propyl)piperidin-3-ol] | ≥ 500 |
